Test results from patent US20260265233A1, “BENZOTHIOPHENE DERIVATIVES AS RXFP1 AGONISTS” (BRISTOL-MYERS SQUIBB COMPANY, priority 2021, published 2026).

Target: T1, human RXFP1 (Homo sapiens, UniProt Q9HBX9)
T1 construct: expressed in transfected cells
T1 sequence (Q9HBX9 1-757): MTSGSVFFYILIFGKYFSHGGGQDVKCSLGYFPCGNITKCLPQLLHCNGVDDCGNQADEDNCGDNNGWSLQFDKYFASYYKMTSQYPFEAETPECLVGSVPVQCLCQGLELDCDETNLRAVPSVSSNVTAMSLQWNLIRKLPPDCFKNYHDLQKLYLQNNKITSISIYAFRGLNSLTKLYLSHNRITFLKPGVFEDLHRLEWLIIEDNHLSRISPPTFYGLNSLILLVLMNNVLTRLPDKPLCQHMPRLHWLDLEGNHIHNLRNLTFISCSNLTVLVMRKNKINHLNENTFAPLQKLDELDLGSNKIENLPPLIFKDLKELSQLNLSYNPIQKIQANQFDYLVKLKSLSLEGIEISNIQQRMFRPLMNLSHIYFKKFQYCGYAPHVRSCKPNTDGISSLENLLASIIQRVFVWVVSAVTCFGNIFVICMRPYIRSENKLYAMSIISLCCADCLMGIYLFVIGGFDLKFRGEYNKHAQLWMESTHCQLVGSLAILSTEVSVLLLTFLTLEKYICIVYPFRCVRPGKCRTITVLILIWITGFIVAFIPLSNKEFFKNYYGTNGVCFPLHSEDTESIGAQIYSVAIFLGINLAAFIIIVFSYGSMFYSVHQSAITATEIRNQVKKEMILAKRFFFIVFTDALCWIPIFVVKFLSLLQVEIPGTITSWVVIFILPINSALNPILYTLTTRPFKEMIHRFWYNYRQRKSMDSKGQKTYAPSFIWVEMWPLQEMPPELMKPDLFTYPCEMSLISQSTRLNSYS
Assay: hRXFP1 HEK293 cAMP assay (HTRF)
Format: cell-based
Conditions: HEK293 cells stably expressing human RXFP1; 30 min at rt; intracellular cAMP by HTRF
Method in brief: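 HEK293 cells stably expressing human RXFP1 treated 30 min at rt with compound (0.010 nM to 50 μM, 2% DMSO) in HBSS/HEPES buffer with 0.5 mM IBMX. Intracellular cAMP measured by HTRF (665/590 nm ratio) against a cAMP standard curve; potency fitted by 4-parameter logistic.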

SMILES: COc1ccc(C2CC3(C2)CN(C(=O)CC(C)(C)O)C3)cc1C(=O)Nc1c(C(=O)Nc2ccc(F)c(C(F)(F)F)c2)sc2cc(C(F)(F)F)ccc12 [Example 109, N-(4-fluoro-3-(trifluoromethyl)phenyl)-3-(5-(2-(3-hydroxy-3-methylbutanoyl)-2-azaspiro[3.3]heptan-6-yl)-2-methoxy-benzamido)-6-(trifluoromethyl) benzo[b] thiophene-2-carboxamide]
- EC50: 509 nM

SMILES: COc1cc(F)c(C#CCO)cc1C(=O)Nc1c(C(=O)Nc2ccc(F)c(C(F)(F)F)c2)sc2cc(C(F)(F)F)ccc12 [Example 110, N-(4-fluoro-3-(trifluoromethyl)phenyl)-3-(4-fluoro-5-(3-hydroxyprop-1-yn-1-yl)-2-methoxy-benzamido)-6-(trifluoromethyl) benzo[b] thiophene-2-carboxamide]
- EC50: 144 nM

SMILES: COc1ccc(-c2cc(S(=O)(=O)NC(C)(C)C)ccc2F)cc1C(=O)Nc1c(C(=O)Nc2ccc(F)c(C(F)(F)F)c2)sc2cc(C(F)(F)F)ccc12 [Example 111, 3-(5′-(N-(tert-butyl)sulfamoyl)-2′-fluoro-4-methoxy-[1,1′-biphenyl]-3-carboxamido)-N-(4-fluoro-3-(trifluoromethyl)phenyl)-6-(trifluoromethyl) benzo[b] thiophene-2-carboxamide]
- EC50: 28.3 nM

SMILES: CCS(=O)(=O)Nc1cncc(-c2ccc(OC)c(C(=O)Nc3c(C(=O)Nc4ccc(F)c(C(F)(F)F)c4)sc4cc(C(F)(F)F)ccc34)c2)c1 [Example 116, 3-(5-(5-(ethylsulfonamido)pyridin-3-yl)-2-methoxy-benzamido)-N-(4-fluoro-3-(trifluoromethyl)phenyl)-6-(trifluoromethyl) benzo[b] thiophene-2-carboxamide]
- EC50: 650 nM

SMILES: COc1ccc(-c2cncc(NS(C)(=O)=O)c2)cc1C(=O)Nc1c(C(=O)Nc2ccc(F)c(C(F)(F)F)c2)sc2cc(C(F)(F)F)ccc12 [Example 117, N-(4-fluoro-3-(trifluoromethyl)phenyl)-3-(2-methoxy-5-(5-(methyl-sulfonamido)pyridin-3-yl)benzamido)-6-(trifluoromethyl) benzo[b] thiophene-2-carboxamide]
- EC50: 131 nM

SMILES: COc1ccc(-c2ccc(N3CCNCC3)nc2)cc1C(=O)Nc1c(C(=O)Nc2ccc(F)c(C(F)(F)F)c2)sc2cc(C(F)(F)F)ccc12 [Example 118, N-(4-fluoro-3-(trifluoromethyl)phenyl)-3-(2-methoxy-5-(6-(piperazin-1-yl)pyridin-3-yl)benzamido)-6-(trifluoromethyl) benzo[b] thiophene-2-carboxamide]
- EC50: 255 nM

SMILES: COc1ccc(-c2cccc(S(=O)(=O)N(C)C)c2)cc1C(=O)Nc1c(C(=O)Nc2ccc(F)c(C(F)(F)F)c2)sc2cc(C(F)(F)F)ccc12 [Example 119, 3-(3′-(N,N-dimethyl-sulfamoyl)-4-methoxy-[1,1′-biphenyl]-3-carboxamido)-N-(4-fluoro-3-(trifluoromethyl)phenyl)-6-(trifluoromethyl) benzo[b] thiophene-2-carboxamide]
- EC50: 282 nM

SMILES: COc1ccc(-c2cccc(C(C)(C)O)c2)cc1C(=O)Nc1c(C(=O)Nc2ccc(F)c(C(F)(F)F)c2)sc2cc(C(F)(F)F)ccc12 [Example 120, N-(4-fluoro-3-(trifluoromethyl)phenyl)-3-(3′-(2-hydroxypropan-2-yl)-4-methoxy-[1,1′-biphenyl]-3-carboxamido)-6-(trifluoromethyl) benzo[b] thiophene-2-carboxamide]
- EC50: 228 nM

SMILES: COc1ccc(-c2cccc(CNS(C)(=O)=O)c2)cc1C(=O)Nc1c(C(=O)Nc2ccc(F)c(C(F)(F)F)c2)sc2cc(C(F)(F)F)ccc12 [Example 121, N-(4-fluoro-3-(trifluoromethyl)phenyl)-3-(4-methoxy-3′-(methylsulfon-amidomethyl)-[1,1′-biphenyl]-3-carboxamido)-6-(trifluoromethyl) benzo[b] thiophene-2-carboxamide]
- EC50: 111 nM

SMILES: COc1ccc(-c2cccc(NS(C)(=O)=O)c2)cc1C(=O)Nc1c(C(=O)Nc2ccc(F)c(C(F)(F)F)c2)sc2cc(C(F)(F)F)ccc12 [Example 123, N-(4-fluoro-3-(trifluoromethyl)phenyl)-3-(4-methoxy-3′-(methylsulfon-amido)-[1,1′-biphenyl]-3-carboxamido)-6-(trifluoromethyl) benzo[b] thiophene-2-carboxamide]
- EC50: 236 nM

SMILES: COc1ccc(C#CC(C)(C)O)cc1C(=O)Nc1c(C(=O)Nc2ccc(F)c(C(F)(F)F)c2)sc2cc(C(F)(F)F)ccc12 [Example 124, N-(4-fluoro-3-(trifluoromethyl)phenyl)-3-(5-(3-hydroxy-3-methylbut-1-yn-1-yl)-2-methoxybenz-amido)-6-(trifluoromethyl) benzo[b] thiophene-2-carboxamide]
- EC50: 560 nM

SMILES: COc1ccc(-c2ccc(N3CCOCC3)nc2)cc1C(=O)Nc1c(C(=O)Nc2ccc(F)c(C(F)(F)F)c2)sc2cc(C(F)(F)F)ccc12 [Example 127, N-(4-fluoro-3-(trifluoromethyl)phenyl)-3-(2-methoxy-5-(6-morpholino-pyridin-3-yl)benzamido)-6-(trifluoromethyl) benzo[b] thiophene-2-carboxamide]
- EC50: 254 nM

SMILES: COc1ccc(-c2cc(C(=O)O)ccc2F)cc1C(=O)Nc1c(C(=O)Nc2ccc(F)c(C(F)(F)F)c2)sc2cc(C(F)(F)F)ccc12 [Example 128, 6-fluoro-3′-((2-((4-fluoro-3-(trifluoromethyl)phenyl)carbamoyl)-6-(trifluoromethyl)benzo[b]thiophen-3-yl)carbamoyl)-4′-methoxy-[1,1′-biphenyl]-3-carboxylic acid]
- EC50: 237 nM

SMILES: COc1ccc(C(=O)N2CCO[C@@H](CO)C2)cc1C(=O)Nc1c(C(=O)Nc2ccc(F)c(C(F)(F)F)c2)sc2cc(C(F)(F)F)ccc12 [Example 129, (R)-N-(4-fluoro-3-(trifluoromethyl)phenyl)-3-(5-(2-(hydroxymethyl)morpholine-4-carbonyl)-2-methoxy-benzamido)-6-(trifluoromethyl) benzo[b] thiophene-2-carboxamide]
- EC50: 444 nM

SMILES: COc1ccc(C(=O)N2CC3(C2)CS(=O)(=O)C3)cc1C(=O)Nc1c(C(=O)Nc2ccc(F)c(C(F)(F)F)c2)sc2cc(C(F)(F)F)ccc12 [Example 130, 3-(5-(2,2-dioxido-2-thia-6-azaspiro[3.3]heptane-6-carbonyl)-2-methoxy-benzamido)-N-(4-fluoro-3-(trifluoromethyl)phenyl)-6-(trifluoromethyl) benzo[b] thiophene-2-carboxamide]
- EC50: 279 nM

SMILES: COc1ccc(C(=O)NCC2(S(C)(=O)=O)CC2)cc1C(=O)Nc1c(C(=O)Nc2ccc(F)c(C(F)(F)F)c2)sc2cc(C(F)(F)F)ccc12 [Example 131, N3-(2-((4-fluoro-3-(trifluoromethyl)phenyl)carbamoyl)-6-(trifluoromethyl)benzo[b]thiophen-3-yl)-4-methoxy-N1-((1-(methylsulfonyl)cyclopropyl)methyl) isophthalamide]
- EC50: 51.2 nM

SMILES: COc1ccc(C(=O)N2CCC(O)CC2)cc1C(=O)Nc1c(C(=O)Nc2ccc(F)c(C(F)(F)F)c2)sc2cc(C(F)(F)F)ccc12 [Example 132, N-(4-fluoro-3-(trifluoromethyl)phenyl)-3-(5-(4-hydroxy-piperidine-1-carbonyl)-2-methoxy-benzamido)-6-(trifluoromethyl) benzo[b] thiophene-2-carboxamide]
- EC50: 135 nM

SMILES: COc1ccc(C2CCN(C(=O)C3CC3(F)F)C2)cc1C(=O)Nc1c(C(=O)Nc2ccc(F)c(C(F)(F)F)c2)sc2cc(C(F)(F)F)ccc12 (centres unmarked) [Example 134, 3-(5-(1-(2,2-difluorocyclo-propane-1-carbonyl)pyrrolidin-3-yl)-2-methoxy-benzamido)-N-(4-fluoro-3-(trifluoromethyl)phenyl)-6-(trifluoromethyl) benzo[b] thiophene-2-carboxamide]
- EC50: 634 nM

SMILES: COc1ccc(C2CCN(C(=O)C3(C)COC3)C2)cc1C(=O)Nc1c(C(=O)Nc2ccc(F)c(C(F)(F)F)c2)sc2cc(C(F)(F)F)ccc12 (centres unmarked) [Example 135, N-(4-fluoro-3-(trifluoromethyl)phenyl)-3-(2-methoxy-5-(1-(3-methyloxetane-3-carbonyl)pyrrolidin-3-yl)benzamido)-6-(trifluoromethyl) benzo[b] thiophene-2-carboxamide]
- EC50: 488 nM

SMILES: COc1ccc(C2CCN(C(=O)CC(C)(C)O)C2)cc1C(=O)Nc1c(C(=O)Nc2ccc(F)c(C(F)(F)F)c2)sc2cc(C(F)(F)F)ccc12 (centres unmarked) [Example 136, N-(4-fluoro-3-(trifluoromethyl)phenyl)-3-(5-(1-(3-hydroxy-3-methylbutanoyl)pyrrolidin-3-yl)-2-methoxy-benzamido)-6-(trifluoromethyl) benzo[b] thiophene-2-carboxamide]
- EC50: 514 nM
